In US9302999B2, “Substituted triazoles as herbicides” (E. I. DU PONT DE NEMOURS AND COMPANY, priority 2012, dated 2016):

How the values were obtained:
Type in all cases: in vivo
[1] = system: panicum, fall (fall panicum Panicum dichotomiflorum); assay: Test F pre-/postemergence: panicum, fall; settings: Postemergence, scale 0 to 100
Description: (§1) Seeds of plant species selected from corn (Zea mays), soybean (Glycine max), velvetleaf (Abutilon theophrasti), lambsquarters (Chenopodium album), poinsettia, wild (wild poinsettia, Euphorbia heterophylla), pigweed, palmer (palmer pigweed, Amaranthus palmeri), waterhemp (common waterhemp, Amaranthus rudis), surinam grass (Brachiaria decumbens), crabgrass, Brazil (Brazilian crabgrass, Digitaria horizontalis), panicum, fall (fall panicum Panicum dichotomiflorum), crabgrass, large (large crabgrass, Digitaria sanguinalis), foxtail, giant (giant foxtail, Setaria faberii), foxtail, green (green foxtail Setaria viridis), goosegrass (Eleusine indica), ragweed (common ragweed, Ambrosia elatior), barnyardgrass (Echinochloa crus-galli), sandbur (southern sandbur, Cenchrus echinatus), arrowleaf sida (Sida rhombifolia), ryegrass, Italian (Italian ryegrass, Lolium multiflorum), dayflower, VA (Virginia (VA) dayflower, Commelina virginica), field bindweed (Convolvulus arvensis), cocklebur (common cocklebur, Xanthium strumarium), morningglory (Ipomoea coccinea), nightshade (eastern black nightshade, Solanum ptycanthum), kochia (Kochia scoparia), nutsedge, yellow (yellow nutsedge, Cyperus esculentus), johnsongrass (Sorghum halepense), smartweed (ladysthumb smartweed, Polygonum persicaria), and beggarticks (hairy beggarticks, Bidens pilosa), were planted into a silt loam soil and treated preemergence with test chemicals formulated in a non-phytotoxic solvent mixture which included a surfactant. At the same time, plants selected from these crop and weed species and also pigweed (Amaranthus retroflexus), waterhemp_RES1 (ALS/Triazine resistant common waterhemp, Amaranthus rudis) and waterhemp_RES2 (ALS/HPPD resistant common waterhemp, Amaranthus rudis) were planted in pots containing a planting medium comprising spaghnum peat moss, vermiculite, wetting agent and starter nutrients treated with postemergence applications of some of the test chemicals formulated in the same manner. Plants ranged in height from 2 to 18 cm for postemergence treatments (1- to 4-leaf stage).
(§2) Treated plants and controls were maintained in a greenhouse for 14 to 21 days, after which time all species were compared to controls and visually evaluated. Plant response ratings, summarized in Table E, are based on a scale of 0 to 100 where 0 is no effect and 100 is complete control. A dash (-) response means no test result.

[2] = system: dayflower, VA (Virginia (VA) dayflower, Commelina virginica); assay: Test F pre-/postemergence: dayflower, VA; settings: Postemergence, scale 0 to 100
Description: as §1, §2

[3] = system: barnyardgrass (Echinochloa crus-galli); assay: Test F pre-/postemergence: barnyardgrass; settings: Postemergence, scale 0 to 100
Description: as §1, §2

[4] = system: ryegrass, Italian (Italian ryegrass, Lolium multiflorum); assay: Test E pre-/postemergence: ryegrass, Italian; settings: Preemergence, scale 0 to 100
Description: (§3) Seeds of plant species selected from corn (Zea mays), soybean (Glycine max), velvetleaf (Abutilon theophrasti), lambsquarters (Chenopodium album), poinsettia, wild (wild poinsettia, Euphorbia heterophylla), pigweed, palmer (palmer pigweed, Amaranthus palmeri), waterhemp (common waterhemp, Amaranthus rudis), smartweed (ladysthumb smartweed, Polygonum persicaria), surinam grass (Brachiaria decumbens), crabgrass, large (large crabgrass, Digitaria sanguinalis), crabgrass, Brazil (Brazilian crabgrass, Digitaria horizontalis), panicum, fall (fall panicum, Panicum dichotomiflorum), foxtail, giant (giant foxtail, Setaria faberii), foxtail, green (green foxtail, Setaria viridis), goosegrass (Eleusine indica), johnsongrass (Sorghum halepense), ragweed (common ragweed, Ambrosia elation), barnyardgrass (Echinochloa crus-galli), sandbur (southern sandbur, Cenchrus echinatus), arrowleaf sida (Sida rhombifolia), ryegrass, Italian (Italian ryegrass, Lolium multiflorum), dayflower, (VA) (Virginia dayflower, Commelina virginica), field bindweed (Convolvulus arvensis), cocklebur (common cocklebur, Xanthium strumarium), morningglory (Ipomoea coccinea), nightshade (eastern black nightshade, Solanum ptycanthum), kochia (Kochia scoparia), nutsedge, yellow (yellow nutsedge, Cyperus esculentus) and beggarticks (hairy beggarticks, Bidens pilosa) were planted into a silt loam soil and treated preemergence with test chemicals formulated in a non-phytotoxic solvent mixture which included a surfactant. At the same time, plants selected from these crop and weed species were planted in pots containing a growing medium comprising spaghnum peat moss, vermiculite, wetting agent and starter nutrients and treated with postemergence applications of some of the test chemicals formulated in the same manner. Plants ranged in height from 2 to 18 cm for postemergence treatments (1- to 4-leaf stage).
as §2

[5] = system: surinam grass (Brachiaria decumbens); assay: Test E pre-/postemergence: surinam grass; settings: Preemergence, scale 0 to 100
Description: as §3, §2

[6] = system: goosegrass (Eleusine indica); assay: Test E pre-/postemergence: goosegrass; settings: Preemergence, scale 0 to 100
Description: as §3, §2

[7] = system: corn (Zea mays); assay: Test E pre-/postemergence: corn; settings: Preemergence, scale 0 to 100
Description: as §3, §2

Cc1nn(-c2ccc(F)c(F)c2)nc1Oc1ccnc(C(F)(F)F)c1 [Compound 145]
Plant response rating, Panicum, Fall ([1]; 8 g ai/ha): 10 | Plant response rating, Panicum, Fall ([1]; 16 g ai/ha): 25 | Plant response rating, Panicum, Fall ([1]; 31 g ai/ha): 40 | Plant response rating, Panicum, Fall ([1]; 62 g ai/ha): 40 | Plant response rating, Panicum, Fall ([1]; 125 g ai/ha): 40 | Plant response rating, Dayflower, VA ([2]; 8 g ai/ha): 15 | Plant response rating, Dayflower, VA ([2]; 16 g ai/ha): 20 | Plant response rating, Dayflower, VA ([2]; 31 g ai/ha): 50 | Plant response rating, Dayflower, VA ([2]; 62 g ai/ha): 60 | Plant response rating, Dayflower, VA ([2]; 125 g ai/ha): 70 | Plant response rating, Barnyardgrass ([3]; 8 g ai/ha): 20 | Plant response rating, Barnyardgrass ([3]; 16 g ai/ha): 20 | Plant response rating, Barnyardgrass ([3]; 31 g ai/ha): 30 | Plant response rating, Barnyardgrass ([3]; 62 g ai/ha): 30 | Plant response rating, Barnyardgrass ([3]; 125 g ai/ha): 40

Cc1nn(-c2ccc(F)cc2)nc1Oc1ccnc(C(F)(F)F)c1 [Compound 129, 4-[[2-(4-fluorophenyl)-5-methyl-2H-1,2,3-triazol-4-yl]oxy]-2-(trifluoromethyl)pyridine]
Plant response rating: Ryegrass, Italian ([4]; 8 g ai/ha): 0 | Plant response rating: Ryegrass, Italian ([4]; 16 g ai/ha): 25 | Plant response rating: Ryegrass, Italian ([4]; 31 g ai/ha): 25 | Plant response rating: Ryegrass, Italian ([4]; 62 g ai/ha): 40 | Plant response rating: Ryegrass, Italian ([4]; 125 g ai/ha): 60 | Plant response rating: Surinam Grass ([5]; 8 g ai/ha): 0 | Plant response rating: Surinam Grass ([5]; 16 g ai/ha): 0 | Plant response rating: Surinam Grass ([5]; 31 g ai/ha): 15 | Plant response rating: Surinam Grass ([5]; 62 g ai/ha): 15 | Plant response rating: Surinam Grass ([5]; 125 g ai/ha): 60 | Plant response rating: Goosegrass ([6]; 8 g ai/ha): 40 | Plant response rating: Goosegrass ([6]; 16 g ai/ha): 40 | Plant response rating: Goosegrass ([6]; 31 g ai/ha): 50 | Plant response rating: Goosegrass ([6]; 62 g ai/ha): 60 | Plant response rating: Goosegrass ([6]; 125 g ai/ha): 100 | Plant response rating: Corn ([7]; 8 g ai/ha): 0 | Plant response rating: Corn ([7]; 16 g ai/ha): 0 | Plant response rating: Corn ([7]; 31 g ai/ha): 0 | Plant response rating: Corn ([7]; 62 g ai/ha): 10 | Plant response rating: Corn ([7]; 125 g ai/ha): 10

Cc1nn(-c2ccc(F)cc2)nc1Cc1ccnc(C(F)(F)F)c1 [Compound 16, 4-[[2-(4-fluorophenyl)-5-methyl-2H-1,2,3-triazol-4-yl]methyl]-2-(trifluoromethyl)pyridine]
Plant response rating: Ryegrass, Italian ([4]; 8 g ai/ha): 0 | Plant response rating: Ryegrass, Italian ([4]; 16 g ai/ha): 0 | Plant response rating: Ryegrass, Italian ([4]; 31 g ai/ha): 30 | Plant response rating: Ryegrass, Italian ([4]; 62 g ai/ha): 50 | Plant response rating: Ryegrass, Italian ([4]; 125 g ai/ha): 98 | Plant response rating: Surinam Grass ([5]; 8 g ai/ha): 0 | Plant response rating: Surinam Grass ([5]; 16 g ai/ha): 0 | Plant response rating: Surinam Grass ([5]; 31 g ai/ha): 0 | Plant response rating: Surinam Grass ([5]; 62 g ai/ha): 30 | Plant response rating: Surinam Grass ([5]; 125 g ai/ha): 35 | Plant response rating: Goosegrass ([6]; 8 g ai/ha): 40 | Plant response rating: Goosegrass ([6]; 16 g ai/ha): 40 | Plant response rating: Goosegrass ([6]; 31 g ai/ha): 98 | Plant response rating: Goosegrass ([6]; 62 g ai/ha): 100 | Plant response rating: Goosegrass ([6]; 125 g ai/ha): 100 | Plant response rating: Corn ([7]; 8 g ai/ha): 0 | Plant response rating: Corn ([7]; 16 g ai/ha): 0 | Plant response rating: Corn ([7]; 31 g ai/ha): 0 | Plant response rating: Corn ([7]; 62 g ai/ha): 20 | Plant response rating: Corn ([7]; 125 g ai/ha): 20
